Test results from patent publication US11078465B2, “Alcohol dehydrogenase mutant and application thereof in synthesis of diaryl chiral alcohols” (Jiangnan University, priority 2018, dated 2021).

Columns and labels:
Format in all cases: biochemical
[1] = target: alcohol dehydrogenase KpADH, wild type (WT), SEQ ID No. 2 (Vanderwaltozyma polyspora, UniProt A7TM80); experiment: Kinetic analysis of alcohol dehydrogenase (CPMK reduction, NADPH absorption at 340 nm); parameters: unit not given here
Protocol: (§1) Adopting a total reaction system of 200 μL, including: 1.0 mM NADPH, 1.0 mM substrate CPMK and sodium phosphate buffer (PBS, 100 mM, pH 7.0), fully and evenly mixing, maintaining at 30° C. for 2 min, adding an appropriate amount of enzyme solution, and detecting the change in light absorption at 340 nm.
(§2) The enzyme activity was calculated by the following formula: Enzyme activity (U)=EW×V×10^3/(6220×I);
(§3) in the formula, EW is the change in absorbance at 340 nm in 1 min; V is the volume of a reaction solution in mL; 6220 is the molar extinction coefficient of NADPH in L/mol·cm); and 1 is the optical path distance in cm. One activity unit (U) corresponds to the amount of enzyme required to catalyze the oxidation of 1 μmol NADPH per minute under the above conditions.
(§4) A column used for purification was a nickel affinity column HisTrap FF crude, and purification was achieved through affinity chromatography using a histidine tag on recombinant protein. The nickel column was equilibrated with a solution A first, a crude enzyme solution was loaded, a penetrating peak was further eluted off using the solution A, and after equilibrium, a solution B (20 mM sodium phosphate, 500 mM NaCl, and 1000 mM imidazole, pH 7.4) was used for gradient elution to elute off the recombinant protein bound to the nickel column, so as to obtain the recombinant alcohol dehydrogenase mutant. The purified protein was subjected to activity measurement (CPMK as substrate, and NADPH as coenzyme) and SDS-PAGE analysis. […] The purified alcohol dehydrogenase protein was then replaced into a Tris-HCl (100 mM, pH 7.0) buffer using a Hi Trap Desalting column (GE Healthcare).
(§5) The activity of KpADH at different substrate concentrations and coenzyme concentrations was determined, and a double reciprocal curve was made based on the reciprocal of activity and substrate concentration to calculate kinetic parameters.

[2] = target: alcohol dehydrogenase KpADH (SEQ ID No. 2) mutant F320V/S237A (Vanderwaltozyma polyspora, UniProt A7TM80, form not given/S237A); experiment: Kinetic analysis of alcohol dehydrogenase mutant (CPMK reduction, NADPH absorption at 340 nm); settings: substrate CPMK, pH 7.0, 30° C.
Protocol: as §1, §2, §3, §4, §5
(§6) Two mutants of S237A and S237C valuable for modification of asymmetric synthesis R- and S- are obtained by random mutation screening, and the two sites are used as templates for random mutation. […] It can be known by combining the data in Tables 2 and 3 that the 214 site of alcohol dehydrogenase is a site that is important for determining selectivity improvement and inversion.

[3] = target: alcohol dehydrogenase KpADH (SEQ ID No. 2) mutant F320W/S237A (Vanderwaltozyma polyspora, UniProt A7TM80, form not given/S237A); experiment: as above; settings: substrate CPMK, pH 7.0, 30° C.
Protocol: as §1, §2, §3, §4, §5, §6

Q: What does the source list for O=C(c1ccc(Cl)cc1)c1ccccn1 [CPMK, (4-chlorophenyl)-(pyridin-2-yl)-methanone]?
A: Km [1]: 0.76; Kcat [2]: 5.9 ± 0.09 s⁻¹; Km [2]: 1150 ± 50 µM; Vmax [2]: 8.9 ± 0.78 µM/min/mg; Kcat [3]: 11.07 ± 0.25 s⁻¹; Km [3]: 1660 ± 20 µM; Vmax [3]: 16.6 ± 0.37 µM/min/mg
